Key:
Test in all cases: Competitive isoTOP-ABPP, cell lysates
Format in all cases: binding
[1] = target: T1, AIP C122 (O00170) (Homo sapiens, UniProt O00170); conditions: for isoTOP-ABPP reactivity ratio, O00170_C122: 500 μm
T1 sequence (O00170 1-330): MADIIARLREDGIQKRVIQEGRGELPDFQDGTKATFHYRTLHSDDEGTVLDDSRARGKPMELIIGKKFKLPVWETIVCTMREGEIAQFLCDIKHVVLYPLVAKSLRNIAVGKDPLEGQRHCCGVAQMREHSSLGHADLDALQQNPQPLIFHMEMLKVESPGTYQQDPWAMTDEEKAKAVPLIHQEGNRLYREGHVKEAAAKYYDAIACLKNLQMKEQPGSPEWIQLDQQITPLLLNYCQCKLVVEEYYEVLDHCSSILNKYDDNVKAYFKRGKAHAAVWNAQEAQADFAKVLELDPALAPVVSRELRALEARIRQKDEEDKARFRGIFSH

[2] = target: DCUN1D1 C115 (Q96GG9) (Homo sapiens, UniProt Q96GG9); conditions: for isoTOP-ABPP ratio (reactivity profile), Q96GG9_C115: 500 μm in-vitro ramos; for isoTOP-ABPP reactivity ratio, Q96GG9_C115: 500 μm, in-vitro_ramos
[3] = target: T2, UBE2S C118 (Q16763) (Homo sapiens, UniProt Q16763)
T2 sequence (Q16763 1-222): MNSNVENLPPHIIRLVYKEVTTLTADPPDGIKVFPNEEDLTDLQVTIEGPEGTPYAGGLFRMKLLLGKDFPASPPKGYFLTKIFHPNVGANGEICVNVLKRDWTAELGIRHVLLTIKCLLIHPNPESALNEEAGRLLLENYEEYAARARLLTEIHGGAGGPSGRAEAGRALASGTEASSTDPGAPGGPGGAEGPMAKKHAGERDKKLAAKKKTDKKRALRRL

[4] = target: T3, UCHL3 C95 (P15374) (Homo sapiens, UniProt P15374); conditions: for isoTOP-ABPP ratio, P15374_C95: 500 μM, invitro
T3 sequence (P15374 1-230): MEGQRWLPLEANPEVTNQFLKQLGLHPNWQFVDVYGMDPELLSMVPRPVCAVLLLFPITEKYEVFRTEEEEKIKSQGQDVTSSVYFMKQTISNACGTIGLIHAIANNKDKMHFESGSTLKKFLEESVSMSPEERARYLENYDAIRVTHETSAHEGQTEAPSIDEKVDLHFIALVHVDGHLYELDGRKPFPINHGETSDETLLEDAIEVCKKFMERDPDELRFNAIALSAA

[5] = target: ZNF217 C286 (O75362) (Homo sapiens, UniProt O75362)
[6] = target: T4, IDH2 C308 (P48735) (Homo sapiens, UniProt P48735); conditions: for isoTOP-ABPP ratio (reactivity profile), P48735_C308: 500 μm in-vitro ramos_231
T4 sequence (P48735 40-452): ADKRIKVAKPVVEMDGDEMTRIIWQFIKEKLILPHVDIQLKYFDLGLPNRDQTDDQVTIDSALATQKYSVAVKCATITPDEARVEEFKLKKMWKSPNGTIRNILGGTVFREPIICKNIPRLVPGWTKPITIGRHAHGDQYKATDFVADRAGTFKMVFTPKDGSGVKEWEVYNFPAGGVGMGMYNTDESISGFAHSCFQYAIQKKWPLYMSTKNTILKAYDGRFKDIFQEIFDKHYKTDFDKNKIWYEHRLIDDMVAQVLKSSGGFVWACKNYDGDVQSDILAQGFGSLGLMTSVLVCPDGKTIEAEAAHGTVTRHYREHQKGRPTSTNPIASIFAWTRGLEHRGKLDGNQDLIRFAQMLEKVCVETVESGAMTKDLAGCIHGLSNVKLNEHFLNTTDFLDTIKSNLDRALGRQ

DCUN1D1 C115 (Q96GG9), sequence (Q96GG9 whole entry): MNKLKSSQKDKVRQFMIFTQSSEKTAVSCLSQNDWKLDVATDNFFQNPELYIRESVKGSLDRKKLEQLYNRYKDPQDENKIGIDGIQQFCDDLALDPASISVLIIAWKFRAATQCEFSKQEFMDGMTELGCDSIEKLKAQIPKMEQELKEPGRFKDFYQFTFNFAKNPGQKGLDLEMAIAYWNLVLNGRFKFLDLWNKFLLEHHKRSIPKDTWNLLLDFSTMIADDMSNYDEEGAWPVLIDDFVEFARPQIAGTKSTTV
ZNF217 C286 (O75362), sequence (O75362 whole entry): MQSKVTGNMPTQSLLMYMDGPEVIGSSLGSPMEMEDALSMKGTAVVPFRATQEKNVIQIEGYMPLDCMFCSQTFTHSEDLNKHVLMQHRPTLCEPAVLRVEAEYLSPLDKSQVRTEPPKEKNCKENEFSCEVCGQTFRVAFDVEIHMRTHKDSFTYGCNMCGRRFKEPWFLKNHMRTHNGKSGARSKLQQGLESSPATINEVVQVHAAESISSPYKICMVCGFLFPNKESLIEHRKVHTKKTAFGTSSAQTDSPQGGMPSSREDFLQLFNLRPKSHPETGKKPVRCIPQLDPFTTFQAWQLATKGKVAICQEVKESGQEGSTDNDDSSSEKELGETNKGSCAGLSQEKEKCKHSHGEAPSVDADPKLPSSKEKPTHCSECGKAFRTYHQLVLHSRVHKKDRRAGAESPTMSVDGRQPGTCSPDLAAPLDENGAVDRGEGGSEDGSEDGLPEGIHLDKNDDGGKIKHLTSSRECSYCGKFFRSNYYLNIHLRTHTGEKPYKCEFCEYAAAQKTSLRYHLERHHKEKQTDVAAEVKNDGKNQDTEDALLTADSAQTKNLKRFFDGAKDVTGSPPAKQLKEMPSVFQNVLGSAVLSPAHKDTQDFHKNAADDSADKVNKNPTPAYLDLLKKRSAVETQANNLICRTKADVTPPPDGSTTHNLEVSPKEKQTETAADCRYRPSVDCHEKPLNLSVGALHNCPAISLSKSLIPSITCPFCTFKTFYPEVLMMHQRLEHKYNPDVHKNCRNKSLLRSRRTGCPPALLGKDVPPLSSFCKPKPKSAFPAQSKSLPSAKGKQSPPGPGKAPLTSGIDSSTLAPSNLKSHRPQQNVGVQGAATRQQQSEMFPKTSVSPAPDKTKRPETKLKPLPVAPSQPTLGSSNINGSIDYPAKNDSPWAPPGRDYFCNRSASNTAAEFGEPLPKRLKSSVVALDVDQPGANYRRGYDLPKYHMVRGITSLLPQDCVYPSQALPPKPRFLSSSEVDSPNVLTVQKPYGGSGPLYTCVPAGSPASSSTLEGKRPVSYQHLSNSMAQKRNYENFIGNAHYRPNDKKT

With `N#C/C(=C\c1cc(C(F)(F)F)cc(C(F)(F)F)c1)C(N)=O` [compound 23] as the compound, how does the “isoTOP-ABPP ratio (reactivity profile), O00170_C122” value (“isoTOP-ABPP ratio … O00170_C122” below) ([1]; 500 μm in-vitro ramos) read?
The value was 1.4.

What about the “isoTOP-ABPP ratio … O00170_C122” value ([1]; 500 μm in-vitro ramos_231) of the same compound?
The value was 0.7.

What about the “isoTOP-ABPP ratio (reactivity profile), Q96GG9_C115” value (“isoTOP-ABPP ratio … Q96GG9_C115” below) [2] of the same compound?
Its value is 20.0.

What about the “isoTOP-ABPP ratio (reactivity profile), Q16763_C118” value ([3]; 500 μm in-vitro ramos) of the same compound?
Its value is 2.4.

And the “isoTOP-ABPP ratio (reactivity profile), Q16763_C118” value ([3]; 500 μm in-vitro ramos_231)?
Its value is 1.6.

What about the “isoTOP-ABPP ratio (reactivity profile), P15374_C95” value ([4]; 500 μm in-vitro ramos) of the same compound?
The value was 1.1.

And the “isoTOP-ABPP ratio (reactivity profile), P15374_C95” value ([4]; 500 μm in-vitro ramos_231)?
Its value is 0.8.

And the “isoTOP-ABPP ratio (reactivity profile), O75362_C286” value ([5]; 500 μm in-vitro ramos_231)?
Its value is 20.0.

`C=CC(=O)Nc1cc(C)c(Br)cc1C` [compound 40] was tested. Which “isoTOP-ABPP reactivity ratio, Q96GG9_C115” value [2] did it give?
The value was 0.9.

And the “isoTOP-ABPP reactivity ratio, Q16763_C118” value ([3]; 500 μm, in-vitro_ramos)?
Its value is 0.8.

And the “isoTOP-ABPP reactivity ratio, Q16763_C118” value ([3]; 500 μm, in-vitro_ramos_231)?
Its value is 0.9.

And the “isoTOP-ABPP reactivity ratio, P15374_C95” value ([4]; 500 μm, in-vitro_ramos)?
The value was 0.9.

Which “isoTOP-ABPP ratio, P15374_C95” value [4]; 231 does the source give for `CNS(=O)(=O)C=Cc1ccc2c(ccn2Cc2ccccc2)c1` [compound 6] here?
The value was 1.1.

And the “isoTOP-ABPP ratio O75362_C286” value ([5]; 500 μM, invitro, 231)?
Its value is 0.9.

How did the “isoTOP-ABPP reactivity ratio, O00170_C122” value ([1]; in-vitro_ramos_231) turn out when `O=C(CCl)N(Cc1ccc(F)cc1)C12CC3CC(CC(C3)C1)C2` [compound 34] was run?
The value was 1.0.

Which “isoTOP-ABPP ratio … O00170_C122” value ([1]; 500 μm in-vitro ramos) does the source give for `COc1ccccc1OCCNC(=O)CCl` [compound 28] here?
Its value is 1.2.

What about the “isoTOP-ABPP ratio … O00170_C122” value ([1]; 500 μm in-vitro ramos_231) of the same compound?
The value was 0.9.

What about the “isoTOP-ABPP ratio (reactivity profile), Q16763_C118” value ([3]; 500 μm in-vitro ramos) of the same compound?
Its value is 0.8.

What about the “isoTOP-ABPP ratio (reactivity profile), Q16763_C118” value ([3]; 500 μm in-vitro ramos_231) of the same compound?
The value was 1.0.

What about the “isoTOP-ABPP ratio (reactivity profile), P15374_C95” value ([4]; 500 μm in-vitro ramos) of the same compound?
Its value is 0.9.

What about the “isoTOP-ABPP ratio (reactivity profile), P15374_C95” value ([4]; 500 μm in-vitro ramos_231) of the same compound?
The value was 1.1.

And the “isoTOP-ABPP ratio (reactivity profile), P48735_C308” value [6]?
The value was 0.9.

And the “isoTOP-ABPP ratio (reactivity profile), O75362_C286” value ([5]; 500 μm in-vitro ramos)?
Its value is 1.0.

And the “isoTOP-ABPP ratio (reactivity profile), O75362_C286” value ([5]; 500 μm in-vitro ramos_231)?
Its value is 1.0.

For `C=CC(=O)N(Cc1cccnc1)c1ccc(Oc2ccccc2)c(C(F)(F)F)c1` [compound 15], which “isoTOP-ABPP ratio … O00170_C122” value ([1]; 500 μm in-vitro ramos) is on record?
The value was 1.4.

And the “isoTOP-ABPP ratio … Q96GG9_C115” value [2]?
The value was 0.8.

What about the “isoTOP-ABPP ratio (reactivity profile), Q16763_C118” value ([3]; 500 μm in-vitro ramos) of the same compound?
The value was 1.2.

What about the “isoTOP-ABPP ratio (reactivity profile), P15374_C95” value ([4]; 500 μm in-vitro ramos) of the same compound?
The value was 0.7.

Which “isoTOP-ABPP reactivity ratio, O00170_C122” value ([1]; in-vitro_ramos) does the source give for `Cc1ccc(C=C(C#N)C(=O)NCCN2CCOCC2)cc1` [compound 41] here?
Its value is 1.0.

What about the “isoTOP-ABPP reactivity ratio, O00170_C122” value ([1]; in-vitro_ramos_231) of the same compound?
Its value is 1.1.

What about the “isoTOP-ABPP reactivity ratio, Q16763_C118” value ([3]; 500 μm, in-vitro_ramos) of the same compound?
Its value is 3.4.

And the “isoTOP-ABPP reactivity ratio, P15374_C95” value ([4]; 500 μm, in-vitro_ramos)?
The value was 0.8.

What about the “isoTOP-ABPP reactivity ratio, P15374_C95” value ([4]; 500 μm, in-vitro_ramos_231) of the same compound?
The value was 1.0.

And the “isoTOP-ABPP reactivity ratio, O75362_C286” value ([5]; 500 μm, in-vitro_ramos)?
Its value is 0.6.

Which “isoTOP-ABPP ratio … O00170_C122” value ([1]; 500 μm in-vitro ramos) does the source give for `CC(Br)C(=O)Nc1cc(C(F)(F)F)cc(C(F)(F)F)c1` (stereo not drawn) [compound 24] here?
Its value is 1.3.

What about the “isoTOP-ABPP ratio … Q96GG9_C115” value [2] of the same compound?
Its value is 1.7.

And the “isoTOP-ABPP ratio (reactivity profile), Q16763_C118” value ([3]; 500 μm in-vitro ramos)?
The value was 1.2.

What about the “isoTOP-ABPP ratio (reactivity profile), P15374_C95” value ([4]; 500 μm in-vitro ramos) of the same compound?
The value was 1.1.

`CC(C)(C)c1cc(NC(=O)CCl)on1` [compound 32] was tested. Which “isoTOP-ABPP reactivity ratio, O00170_C122” value ([1]; in-vitro_ramos) did it give?
The value was 1.9.

What about the “isoTOP-ABPP reactivity ratio, O00170_C122” value ([1]; in-vitro_ramos_231) of the same compound?
Its value is 3.7.

And the “isoTOP-ABPP reactivity ratio, Q96GG9_C115” value [2]?
Its value is 0.9.

And the “isoTOP-ABPP reactivity ratio, Q16763_C118” value ([3]; 500 μm, in-vitro_ramos)?
The value was 1.1.

What about the “isoTOP-ABPP reactivity ratio, Q16763_C118” value ([3]; 500 μm, in-vitro_ramos_231) of the same compound?
Its value is 1.1.

What about the “isoTOP-ABPP reactivity ratio, P15374_C95” value ([4]; 500 μm, in-vitro_ramos) of the same compound?
The value was 1.0.

What about the “isoTOP-ABPP reactivity ratio, P15374_C95” value ([4]; 500 μm, in-vitro_ramos_231) of the same compound?
Its value is 1.2.

What does the source list for `C=CC(=O)N(c1ccccc1)c1ccc(Br)cc1` [compound 5]?
isoTOP-ABPP ratio, Q16763_C118 ([3]; 500 μM, invitro, 231): 2.8; isoTOP-ABPP ratio, P15374_C95 [4]; 231: 1.5; isoTOP-ABPP ratio, P15374_C95 ([4]; ramos): 1.1; isoTOP-ABPP ratio, P48735_C308 ([6]; 500 μM, invitro, 231): 0.8

How did the “isoTOP-ABPP reactivity profile ratio, Q16763_C118” value ([3]; 500 μm, in-vitro_ramos_231) turn out when `C=CC(=O)N(c1ccccc1)C1CCCCC1` [compound 46] was run?
The value was 1.0.

And the “isoTOP-ABPP reactivity profile ratio, P15374_C95” value ([4]; 500 μm, in-vitro_ramos_231)?
The value was 1.0.

And the “isoTOP-ABPP reactivity profile ratio, P48735_C308” value ([6]; 500 μm, in-vitro_ramos_231)?
The value was 0.2.

And the “isoTOP-ABPP reactivity profile ratio, O75362_C286” value ([5]; 500 μm, in-vitro_ramos_231)?
The value was 0.9.

For `CC(Cl)C(=O)Nc1cc(C(F)(F)F)cc(C(F)(F)F)c1` (stereo not drawn) [compound 25], which “isoTOP-ABPP ratio (reactivity profile), Q16763_C118” value ([3]; 500 μm in-vitro ramos_231) is on record?
Its value is 1.0.

What about the “isoTOP-ABPP ratio (reactivity profile), P15374_C95” value ([4]; 500 μm in-vitro ramos_231) of the same compound?
The value was 0.8.

And the “isoTOP-ABPP ratio (reactivity profile), P48735_C308” value [6]?
Its value is 14.5.

And the “isoTOP-ABPP ratio (reactivity profile), O75362_C286” value ([5]; 500 μm in-vitro ramos_231)?
Its value is 20.0.

— US10670605B2, “Cysteine reactive probes and uses thereof” (The Scripps Research Institute, priority 2015, dated 2020)
